Test results from patent US20190030046A1, “USE OF PURE COMPOUNDS EXTRACTED FROM ANTRODIA CAMPHORATA” (priority 2016, published 2019).

Assays:
[1] = tested on: phospho-Akt(Ser473)/total-Akt(Ser473); experiment: phospho-Akt(Ser473)/total-Akt in C2C12 myotube cells (Western blot); type: cell-based; conditions: 25 min
Protocol: (§1) In the present invention, C2C12 skeletal myoblasts (ATCC, CRL-1772) were maintained in growth media consisting of Dulbecco's modified Eagle's medium (DMEM) (Gibco BRL) and supplemented with 10% Fetal Bovine Serum (FBS) (Hyclone) and 100 U/mL penicillin/100 μg/mL streptomycin (Gibco BRL), and split 1:4 using 0.05% trypsin when 80% confluent. Myoblasts were diluted and placed in a 9 cm-diameter dish. Cells were cultured to achieve 80%-90% confluency and then the growth media was changed as 2% FBS/DMEM every 24 h for 5-7 days.
(§2) In experiments for determining GLUT4 and p-Akt(Ser473)/t-Akt proteins in tubes, differentiated C2C12 cells were serum-starved in DMEM/BSA for 2 h at 37° C. prior to incubation with MeOH crude extract (at 20, 100, 200, and 500 μg/mL), test compounds (at 1, 5, 10, and 25 μg/mL), or vehicle for 25 min, or 100 nM insulin for 25 min.
(§3) The cultures obtained by cell culture above were centrifuged, and the resulting pellet was resuspended in a homogenization buffer. The forgoing steps were performed with a filtration membrane. Protein concentrations were measured using a BCA assay (Pierce). Equal amounts of protein were diluted four times in SDS sample buffer, and subjected to SDS PAGE and Western blotting with antibodies specific for Akt, p-Akt Ser^473, and GLUT4. Density blotting analysis was performed using Alpha Easy FC software.

membrane GLUT4 [2] = experiment: Membrane GLUT4 protein expression in C2C12 myotube cells (Western blot); type: cell-based; conditions: 25 min
Protocol: as §1, §2, §3

[3] = HFD-induced diabetic mice: fasting blood glucose and biochemical indexes; conditions: 4 weeks; for Blood glucose: 12 h fasted HFD mice; for Insulin / Leptin: blood
Protocol: The control group and HFD group contained 10% and 45% fat intake, respectively. The HFD mice were subdivided into 6 groups (9 per group) followed by 8-week induction. […] During the experiment, all mice were fasted overnight, and blood samples were collected from the retro-orbital sinus. Following four-week treatment and feeding, the food was removed, and the mice were fasted for 12 h and then sacrificed. Tissue samples required were collected from the mice and weighted. Some of the tissue samples were immediately stored at −80° C. and frozen for subsequent target gene analysis. Plasma samples were collected via centrifugation of whole blood at 1600×g for 15 min at 4° C., followed by plasma separation within 30 min. Some plasma samples obtained were used for TG and TC analysis. The metabolic parameters, including body weight, weight gain, and food intake, were performed as follows. Body weight was daily measured throughout the study. Body weight gain is considered as the difference between one day and the next day. The total weight of food intake was daily measured, followed by weighing the amount of remaining feed after 24 h. The difference indicates the daily food intake.
One part of the forgoing blood samples collected from the retro-orbital sinus of 12 h fasted mice was immediately used for analysis of glucose levels. The other part was used for analysis of blood TG, TC, free fatty acids, blood insulin, leptin, and adiponectin levels. Blood glucose levels were determined by a glucose analyzer (Model 1500 sidekick glucose analyzer, YSI). Plasma triglycerides (TG), total cholesterol (TC), and free fatty acids (FFA) were determined using commercial kits in accordance with manufacturer's instructions (Triglycerides-E test, Cholesterol-E test, and FFA-C test; Wako Pure Chemical, Osaka, Japan). Insulin and leptin levels were measured by enzyme-linked immunosorbent assay (ELISA) (mouse insulin ELISA kit, Mercodia, Uppsala, Sweden; mouse leptin ELISA kit, Morinaga, Yokohama, Japan).

[4] = HFD-induced diabetic mice: liver lipids; type: in vivo, C57BL/6J mice; conditions: 4 weeks
[5] = HFD-induced diabetic mice: absolute tissue weight, body weight, food intake; type: in vivo, C57BL/6J mice; conditions: 4 weeks
Description: (§4) The difference indicates the daily food intake.

[6] = HFD-induced diabetic mice: histopathology (H-E) of epididymal white adipose and liver tissue; type: in vivo, C57BL/6J mice; conditions: epididymal white adipose, 4 weeks
Protocol: as §4
Examination was performed for parts of EWAT (epididymal white adipose) and liver tissue specimens collected. The specimens above were soaked in formalin and neutral buffered solution and embedded in paraffin. Parts therein (8 μm) were cut and stained with hematoxylin and eosin. Images were photographed by a microscope (Olympus BX51, Olympus, Tokyo, Japan). Please refer to FIGS. 3(A) and 3(B).

GPAT = experiment: Semiquantitative RT-PCR in liver tissue: GPAT; type: in vivo, C57BL/6J mice; conditions: vs HF; HF+Metf, 0.3 g/kg/day oral, 4 weeks
Protocol: as §4
(§5) Total RNA from liver tissue was isolated with a Trizol Reagent (Molecular Research Center, Inc., Cincinnati, Ohio, USA) according to the manufacturer's instructions. The integrity of the extracted total RNA was examined by 2% agarose gel electrophoresis, and the RNA concentration was determined by […] ultraviolet (UV) light absorbency at 260 nm and 280 nm (Spectrophotometer U-2800A, Hitachi). The total RNA (1 μg) was reverse transcribed to cDNA, and 5 μL Moloney murine leukemia virus reverse transcriptase (TEpicentre, Madison, Wis., USA). The PCR was performed in a final 25 μL containing 1 U Blend Taq-Plus (TOYOBO, Japan), 10 μL of the RT cDNA product, 10 μM of each forward (F) and reverse (R) primer, 75 mM Tris-HCL (pH 8.3) containing 1 mg/L Tween 20 (pH 8.3, also known as polyoxyethylene sorbitan monolaurate), 2.5 mM dNTP (deoxy-ribonucleoside triphosphate), and 2 mM MgCl2 (magnesium chloride). The PCR products were analyzed by 2% agarose gel and stained with ethidium bromide.

11β-HSD1 = experiment: Semiquantitative RT-PCR in liver tissue: 11β-HSD1; type: in vivo, C57BL/6J mice; conditions: vs HF; HF+Metf, 0.3 g/kg/day oral, 4 weeks
Protocol: as §4, §5

membrane GLUT4 [7] = experiment: Western blot of skeletal muscle membrane GLUT4 in HFD mice; conditions: compared to HF; HF+Metf, 0.3 g/kg/day oral, 4 weeks
Protocol: (§6) The HFD mice were subdivided into 6 groups (9 per group) followed by 8-week induction. […] Following four-week treatment and feeding, the food was removed, and the mice were fasted for 12 h and then sacrificed. Tissue samples required were collected from the mice and weighted. Some of the tissue samples were immediately stored at −80° C. and frozen for subsequent target gene analysis. Plasma samples were collected via centrifugation of whole blood at 1600×g for 15 min at 4° C., followed by plasma separation within 30 min.
(§7) We determined PPARα and FAS protein expression levels in liver tissue, PPARγ and FAS protein expression levels in adipose tissue, and membrane GLUT4 expression in skeletal muscle adipose. The total membrane fraction was collected with the buffer and determined as previously described. The membrane GLUT4, p-AMPK, and total AMPK protein content were determined by Western Blotting as previously described.

PPARγ = experiment: Western blot of PPARγ protein in liver and adipose tissue of HFD mice; conditions: compared to HF; HF+Metf, 0.3 g/kg/day oral, 4 weeks
SREBP-2 = experiment: Semiquantitative RT-PCR in liver tissue: SREBP-2; type: in vivo, C57BL/6J mice; conditions: vs HF; HF+Metf, 0.3 g/kg/day oral, 4 weeks
Protocol: as §4, §5

aP2 = experiment: Semiquantitative RT-PCR in liver tissue: aP2; type: in vivo, C57BL/6J mice; conditions: vs HF; HF+Metf, 0.3 g/kg/day oral, 4 weeks
Protocol: as §4, §5

FAS = experiment: Western blot of FAS protein in liver and adipose tissue of HFD mice; conditions: compared to HF; HF+Metf, 0.3 g/kg/day oral, 4 weeks
Protocol: as §6, §7

G6-Pase = experiment: Semiquantitative RT-PCR in liver tissue: G6-Pase; type: in vivo, C57BL/6J mice; conditions: vs HF; HF+Metf, 0.3 g/kg/day oral, 4 weeks
Protocol: as §4, §5

CPT-1a = experiment: Semiquantitative RT-PCR in liver tissue: CPT-1a; type: in vivo, C57BL/6J mice; conditions: vs HF; HF+Metf, 0.3 g/kg/day oral, 4 weeks
Protocol: as §4, §5

PPARα = experiment: Western blot of PPARα protein in liver of HFD mice; conditions: compared to HF; HF+Metf, 0.3 g/kg/day oral, 4 weeks
SREBP-1c = experiment: Semiquantitative RT-PCR in liver tissue: SREBP-1c; type: in vivo, C57BL/6J mice; conditions: vs HF; HF+Metf, 0.3 g/kg/day oral, 4 weeks
Protocol: as §4, §5

phospho-AMPK(Thr172) = experiment: Western blot of phospho-AMPK(Thr172)/total-AMPK in skeletal muscle and liver of HFD mice; conditions: compared to HF; HF+Metf, 0.3 g/kg/day oral, 4 weeks
Protocol: as §6, §7

[8] = HFD mice, HF+Feno, 250 mg/kg/day oral
[9] = HFD mice, HF+Metf, 300 mg/kg/day oral
[10] = plasma, HFD mice, HF+Metf, 300 mg/kg/day oral

C=C(CC[C@@H](C)[C@H]1CC[C@H]2C3=C(C(=O)C[C@]12C)[C@@]1(C)CC[C@@H](O)[C@](C)(O)[C@@H]1C[C@@H]3O)C(C)C(=O)O (stereo partly shown) [AnK, Antcin K]
protein expression level of phospho-Akt(Ser473)/total-Akt(Ser473) ([1]; AnK 10 and 25 μg/mL): increase
protein expression level of membrane GLUT4 (membrane GLUT4 [2]; 5, 10, and 25 μg/mL): increase

CC(C)OC(=O)C(C)(C)Oc1ccc(C(=O)c2ccc(Cl)cc2)cc1 [Feno, fenofibrate, reference compound]
Blood glucose ([3]; HF+Feno, 250 mg/kg/day oral): 86.56 mg/dL
Plasma FFA [3, 8]: 0.86 meq/L
Insulin [3, 8]: 2.402 µg/L
Leptin [3, 8]: 7.507 ng/mL
TG ([3]; plasma, HFD mice, HF+Feno, 250 mg/kg/day oral): 83.35 mg/dL
Liver lipids: Total lipid ([4]; HF+Feno, 250 mg/kg/day oral): 62.0 mg/g
Liver lipids: Triacylglycerol ([4]; HF+Feno, 250 mg/kg/day oral): 48.6 µmol/g
Final body weight ([5]; HF+Feno, 250 mg/kg/day oral): 26.04 g
Food intake ([5]; HF+Feno, 250 mg/kg/day oral): 2.05 g/day/mouse
Weight gain ([5]; HF+Feno, 250 mg/kg/day oral): 0.46 g
Adipocyte area ([6]; HF+Feno, 0.25 g/kg/day oral): 6270.5 ± 165.4 μm^2

CN(C)C(=N)N=C(N)N [Metf, metformin, reference compound]
GPAT mRNA expression level in liver (GPAT): decreased
11β-HSD1 mRNA expression level in liver (11β-HSD1): decreased
membrane expression level of GLUT4 in skeletal muscle (membrane GLUT4 [7]): significantly increased
PPARγ protein expression level in adipose tissue (PPARγ): significantly decreased
PPARγ protein expression level in liver (PPARγ): significantly decreased
SREBP-2 mRNA expression level in liver (SREBP-2): decreased
aP2 mRNA expression level in liver (aP2): decreased
FAS protein expression level in adipose tissue (FAS): significantly decreased
FAS protein expression level in liver (FAS): significantly decreased
Blood glucose ([3]; HF+Metf, 300 mg/kg/day oral): 87.33 mg/dL
Plasma FFA [3, 9]: 0.85 meq/L
Insulin [3, 9]: 2.467 µg/L
Leptin [3, 9]: 7.359 ng/mL
TC [3, 10]: 117.20 mg/dL
TG [3, 10]: 82.07 mg/dL
Liver lipids: Total lipid ([4]; HF+Metf, 300 mg/kg/day oral): 61.1 mg/g
Liver lipids: Triacylglycerol ([4]; HF+Metf, 300 mg/kg/day oral): 49 µmol/g
Absolute tissue weight: Visceral fat ([5]; EWAT plus RWAT, HF+Metf, 300 mg/kg/day oral): 662 mg
Absolute tissue weight: Brown adipose tissue (BAT) ([5]; HF+Metf, 300 mg/kg/day oral): 134 mg
Absolute tissue weight: Epididymal white adipose tissue (EWAT) ([5]; HF+Metf, 300 mg/kg/day oral): 482 mg
Absolute tissue weight: Liver ([5]; HF+Metf, 300 mg/kg/day oral): 1960 mg
Absolute tissue weight: Mesenteric white adipose tissue (MWAT) ([5]; HF+Metf, 300 mg/kg/day oral): 198 mg
Absolute tissue weight: Retroperitoneal white adipose tissue (RWAT) ([5]; HF+Metf, 300 mg/kg/day oral): 180 mg
Absolute tissue weight: Spleen ([5]; HF+Metf, 300 mg/kg/day oral): 81 mg
Final body weight ([5]; HF+Metf, 300 mg/kg/day oral): 26.35 g
Food intake ([5]; HF+Metf, 300 mg/kg/day oral): 2.25 g/day/mouse
Weight gain ([5]; HF+Metf, 300 mg/kg/day oral): 0.52 g
G6-Pase mRNA expression level in liver (G6-Pase): decreased
CPT-1a mRNA expression level in liver (CPT-1a): increased
PPAR protein expression level in liver (PPARα): significantly increased
SREBP-1c mRNA expression level in liver (SREBP-1c): decreased
expression level of p-AMPK/t-AMPK proteins in liver (phospho-AMPK(Thr172)): significantly increased
expression level of phospho-AMPK/total-AMPK in skeletal muscle (phospho-AMPK(Thr172)): significantly increased
Adipocyte area ([6]; HF+Metf, 0.3 g/kg/day oral): 6919.5 ± 195.1 μm^2

insulin [reference compound]
protein expression level of phospho-Akt(Ser473)/total-Akt(Ser473) ([1]; 100 nM insulin): increase
protein expression level of membrane GLUT4 (membrane GLUT4 [2]; 100 nM insulin): increase
